Ki data for one compound are collected here from paper PMC3025057 (Experimental parasitology, 2010).

For this test, the target named is Trypanosoma brucei hexokinase 1 (TbHK1) (Trypanosoma brucei, UniProt Q38C42). Put plainly: G6PDH-coupled hexokinase assay with recombinant enzyme. The test is classed as biochemical.

For `O=c1c(O)c(-c2ccc(O)c(O)c2)oc2cc(O)cc(O)c12` [QCN, 3,3′,4′,5,7-pentahydroxyflavone], the Ki was 2.9 ± 0.9 µM.

Broadly, the Ki is the dissociation constant of the complex between target and ligand, obtained from inhibition or displacement.
